According to patent publication US4414408A, “Phenolic antioxidants” (The Goodyear Tire & Rubber Company, priority 1982, dated 1983):

Assay: Oxygen absorption (time to absorb one percent oxygen)
Conditions: 1.0 part antioxidant in SBR-1006

With `C=CC(=O)Oc1c(Cc2cc(C)cc(C(C)(C)C)c2O)cc(C)cc1C(C)(C)C` [Example 8, 2-(2-hydroxy-3-tert.butyl-5-methylbenzyl)-4-methyl-6-tert.butyl phenyl acrylate] the “Hours to Absorb 1% O2” value was 315 h.
